Assay results reported in patent publication US20210244721A1, “SMALL MOLECULE ENTEROVIRUS INHIBITORS AND USES THEREOF” (priority 2020, published 2021).

Each molecule was assayed on EV-D68 US/KY/14-18953 virus (assay: CPE assay, EV-D68 US/KY/14-18953 in RD cells). Conditions: EV-D68 US/KY/14-18953, RD cells.
Format: cell-based, Enterovirus D68 (EV-D68)

Structure (SMILES) | SI = selectivity index (CC50/EC50)
CCN(CC)CCNC(=O)c1cc(OC)nc2ccccc12 [Compound 5a, N-[2-(diethylamino)ethyl]-2-methoxyquinoline-4-carboxamide] | >4.8
CC(C)Oc1cc(C(=O)NCCN2CCOCC2)c2ccccc2n1 [Compound 8d, N-[2-(morpholin-4-yl)ethyl]-2-(propan-2-yloxy)quinoline-4-carboxamide] | >14.3
NNC(=O)c1cc(-c2ccccc2)nc2ccccc12 [Compound 10d, 2-phenylquinoline-4-carbohydrazide] | >3
N=C(N)NC(=O)c1cc(-c2ccccc2)nc2ccccc12 [Compound 10e, N-carbamimidoyl-2-phenylquinoline-4-carboxamide] | >7.2
CN(C)c1ccc(NC(=O)c2cc(-c3ccccc3)nc3ccccc23)cc1 [Compound 10f, N-[4-(dimethylamino)phenyl]-2-phenylquinoline-4-carboxamide] | >3.5

Same assay, conditions: EV-D68 US/KY/14-18953, RD cells, CPE assay; read-out: EC50

Structure (SMILES) | EC50
NCCNC(=O)c1cc(-c2cccs2)nc2ccccc12 [Compound 6bl, N-(2-aminoethyl)-2-(thiophen-2-yl)quinoline-4-carboxamide] | 0.4 µM
CN(C)CCNC(=O)c1cc(-c2ccco2)nc2ccccc12 [Compound 6bo, N-[2-(dimethylamino)ethyl]-2-(furan-2-yl)quinoline-4-carboxamide] | 1.1 µM

Same assay, conditions: Enterovirus D, EVD68, RD, EV-D68 US/KY/14-18953, RD cells, CPE assay

Structure (SMILES) | EC50
CN(C)CCNC(=O)c1cc(-c2ccco2)nc2ccccc12 [Compound 6bo, N-[2-(dimethylamino)ethyl]-2-(furan-2-yl)quinoline-4-carboxamide] | < 1 µM

Same assay, conditions: Enterovirus D, EVD68, RD, EV-D68 US/KY/14-18953, RD cells, CPE assay; read-out: EC50

Structure (SMILES) | EC50
CNCCNC(=O)c1cc(-c2ccccc2)nc2ccccc12 [Compound 6af, N-[2-(methylamino)ethyl]-2-phenylquinoline-4-carboxamide] | 0.9 µM

The molecules below were run on RD cells (assay: Cytotoxicity, neutral red method, RD cells). Conditions: RD cells, neutral red method.

Structure (SMILES) | CC50
CCN(CC)CCNC(=O)c1cc(OC)nc2ccccc12 [Compound 5a, N-[2-(diethylamino)ethyl]-2-methoxyquinoline-4-carboxamide] | > 250 µM
CCOc1cc(C(=O)NCCN(CC)CC)c2ccccc2n1 [Compound 5b, N-[2-(diethylamino)ethyl]-2-ethoxyquinoline-4-carboxamide] | 165 ± 57.6 µM
CCN(CC)CCNC(=O)c1cc(OCC(F)(F)F)nc2ccccc12 [Compound 5c, N-[2-(diethylamino)ethyl]-2-(2,2,2-trifluoroethoxy)quinoline-4-carboxamide] | 33.1 ± 1.8 µM
CCCOc1cc(C(=O)NCCN(CC)CC)c2ccccc2n1 [Compound 5d, N-[2-(diethylamino)ethyl]-2-propoxyquinoline-4-carboxamide] | 46.7 ± 14.7 µM
CCC(C)Oc1cc(C(=O)NCCN(CC)CC)c2ccccc2n1 (stereo not shown) [Compound 5f, 2-(butan-2-yloxy)-N-[2-(diethylamino)ethyl]quinoline-4-carboxamide] | 15.7 ± 1.1 µM
CCN(CC)CCNC(=O)c1cc(OCC2CC2)nc2ccccc12 [Compound 5g, 2-(cyclopropylmethoxy)-N-[2-(diethylamino)ethyl]quinoline-4-carboxamide] | 38.5 ± 16.8 µM
CCC(CC)Oc1cc(C(=O)NCCN(CC)CC)c2ccccc2n1 [Compound 5h, N-[2-(diethylamino)ethyl]-2-(pentan-3-yloxy)quinoline-4-carboxamide] | 9.5 ± 1.1 µM
CCN(CC)CCNC(=O)c1cc(OC2CCCC2)nc2ccccc12 [Compound 5i, 2-(cyclopentyloxy)-N-[2-(diethylamino)ethyl]quinoline-4-carboxamide] | 11.7 ± 1.2 µM
CCOCCOc1cc(C(=O)NCCN(CC)CC)c2ccccc2n1 [Compound 5j, N-[2-(diethylamino)ethyl]-2-(2-ethoxyethoxy)quinoline-4-carboxamide] | 144 ± 40.5 µM
CCN(CC)CCNC(=O)c1cc(OCc2ccccc2)nc2ccccc12 [Compound 5k, 2-(benzyloxy)-N-[2-(diethylamino)ethyl]quinoline-4-carboxamide] | 13.5 ± 2.9 µM
CCN(CC)CCNC(=O)c1cc(-c2ccn[nH]2)nc2ccccc12 [Compound 6a, N-[2-(diethylamino)ethyl]-2-(1H-pyrazol-5-yl)quinoline-4-carboxamide] | 132 ± 53.3 µM
CCN(CC)CCNC(=O)c1cc(-c2cnn(C)c2)nc2ccccc12 [Compound 6b, N-[2-(diethylamino)ethyl]-2-(1-methyl-1H-pyrazol-4-yl)quinoline-4-carboxamide] | 251 ± 28.3 µM
CCN(CC)CCNC(=O)c1cc(-c2ccnn2C)nc2ccccc12 [Compound 6c, N-[2-(diethylamino)ethyl]-2-(1-methyl-1H-pyrazol-5-yl)quinoline-4-carboxamide] | 133 ± 28.7 µM
CCN(CC)CCNC(=O)c1cc(-c2c(C)noc2C)nc2ccccc12 [Compound 6h, N-[2-(diethylamino)ethyl]-2-(3,5-dimethyl-1,2-oxazol-4-yl)quinoline-4-carboxamide] | 129 ± 67.2 µM
CCN(CC)CCNC(=O)c1cc(-c2ccncc2)nc2ccccc12 [Compound 6i, N-[2-(diethylamino)ethyl]-2-(pyridin-4-yl)quinoline-4-carboxamide] | 174 ± 55.6 µM
CCN(CC)CCNC(=O)c1cc(-c2ccccc2OC)nc2ccccc12 [Compound 6k, N-[2-(diethylamino)ethyl]-2-(2-methoxyphenyl)quinoline-4-carboxamide] | 75.9 ± 6.4 µM
CCN(CC)CCNC(=O)c1cc(-c2ccc(COC)cc2)nc2ccccc12 [Compound 6n, N-[2-(diethylamino)ethyl]-2-[4-(methoxymethyl)phenyl]quinoline-4-carboxamide] | 46.6 ± 2.4 µM
CCN(CC)CCNC(=O)c1cc(-c2ccc(CN3CCOCC3)cc2)nc2ccccc12 [Compound 6o, N-[2-(diethylamino)ethyl]-2-{4-[(morpholin-4-yl)methyl]phenyl}quinoline-4-carboxamide] | 79.2 ± 8 µM
CCN(CC)CCNC(=O)c1cc(-c2cnc(N(C)C)nc2)nc2ccccc12 [Compound 6p, N-[2-(diethylamino)ethyl]-2-[2-(dimethylamino)pyrimidin-5-yl]quinoline-4-carboxamide] | 74.2 ± 7 µM

Structure (SMILES) | CC50
CCN(CC)CCNC(=O)c1cc(-c2cnc(OC)nc2)nc2ccccc12 [Compound 6q, N-[2-(diethylamino)ethyl]-2-(2-methoxypyrimidin-5-yl)quinoline-4-carboxamide] | 174 ± 20.3 µM
CCN(CC)CCNC(=O)c1cc(-c2ccc3c(c2)OCCO3)nc2ccccc12 [Compound 6t, N-[2-(diethylamino)ethyl]-2-(2,3-dihydro-1,4-benzodioxin-6-yl)quinoline-4-carboxamide] | 49.9 ± 13.8 µM
CCN(CC)CCNC(=O)c1cc(-c2ccc(-c3ccccc3)cc2)nc2ccccc12 [Compound 6u, 2-{[1,1′-biphenyl]-4-yl}-N-[2-(diethylamino)ethyl]quinoline-4-carboxamide] | 9.8 ± 0.5 µM
CC(C)Oc1cc(C(=O)NCCN(C)C)c2ccccc2n1 [Compound 8a, N-[2-(dimethylamino)ethyl]-2-(propan-2-yloxy)quinoline-4-carboxamide] | 38.5 ± 1.5 µM
CC(C)Oc1cc(C(=O)NCCN)c2ccccc2n1 [Compound 8b, N-(2-aminoethyl)-2-(propan-2-yloxy)quinoline-4-carboxamide] | 149 ± 15.3 µM
CC(C)Oc1cc(C(=O)NCCCN(C)C)c2ccccc2n1 [Compound 8c, N-[3-(dimethylamino)propyl]-2-(propan-2-yloxy)quinoline-4-carboxamide] | 122 ± 39.2 µM
CC(C)Oc1cc(C(=O)NCCN2CCOCC2)c2ccccc2n1 [Compound 8d, N-[2-(morpholin-4-yl)ethyl]-2-(propan-2-yloxy)quinoline-4-carboxamide] | > 250 µM
CC(C)Oc1cc(C(=O)NCCN2CCCC2)c2ccccc2n1 [Compound 8e, 2-(propan-2-yloxy)-N-[2-(pyrrolidin-1-yl)ethyl]quinoline-4-carboxamide] | 36.9 ± 20.1 µM
CC(C)Oc1cc(C(=O)NCCN2CCN(C)CC2)c2ccccc2n1 [Compound 8f, N-[2-(4-methylpiperazin-1-yl)ethyl]-2-(propan-2-yloxy)quinoline-4-carboxamide] | 88.8 ± 21.5 µM
CC(C)Oc1cc(C(=O)NC2CCN(C)CC2)c2ccccc2n1 [Compound 8g, N-(1-methylpiperidin-4-yl)-2-(propan-2-yloxy)quinoline-4-carboxamide] | 101 ± 8.8 µM
CCN(CC)CCCNC(=O)c1cc(-c2ccccc2)nc2ccccc12 [Compound 10b, N-[3-(diethylamino)propyl]-2-phenylquinoline-4-carboxamide] | 45.4 ± 14 µM
NNC(=O)c1cc(-c2ccccc2)nc2ccccc12 [Compound 10d, 2-phenylquinoline-4-carbohydrazide] | > 300 µM
N=C(N)NC(=O)c1cc(-c2ccccc2)nc2ccccc12 [Compound 10e, N-carbamimidoyl-2-phenylquinoline-4-carboxamide] | > 250 µM
CN(C)c1ccc(NC(=O)c2cc(-c3ccccc3)nc3ccccc23)cc1 [Compound 10f, N-[4-(dimethylamino)phenyl]-2-phenylquinoline-4-carboxamide] | > 350 µM
O=C(NCCN1CCCC1)c1cc(-c2ccccc2)nc2ccccc12 [Compound 10g, 2-phenyl-N-[2-(pyrrolidin-1-yl)ethyl]quinoline-4-carboxamide] | 46.7 ± 8.3 µM
CN(C)CCCNC(=O)c1cc(-c2ccccc2)nc2ccccc12 [Compound 10h, N-[3-(dimethylamino)propyl]-2-phenylquinoline-4-carboxamide] | 44.9 ± 17.7 µM
CN(C)CCCNC(=O)c1cc(-c2cccs2)nc2ccccc12 [Compound 12b, N-[3-(dimethylamino)propyl]-2-(thiophen-2-yl)quinoline-4-carboxamide] | 40.5 ± 14 µM
O=C(NCCCn1ccnc1)c1cc(-c2cccs2)nc2ccccc12 [Compound 12d, N-[3-(1H-imidazol-1-yl)propyl]-2-(thiophen-2-yl)quinoline-4-carboxamide] | 55.7 ± 3.5 µM

Same assay, conditions: Table 6; RD cells

Structure (SMILES) | CC50
CN(C)CCNC(=O)c1cc(-c2ccccc2)nc2ccc(Cl)cc12 [Compound 15a, 6-chloro-N-[2-(dimethylamino)ethyl]-2-phenylquinoline-4-carboxamide] | 14.3 ± 0.8 µM
CCN(CC)CCNC(=O)c1cc(-c2ccccc2)nc2ccc(Cl)cc12 [Compound 15b, 6-chloro-N-[2-(diethylamino)ethyl]-2-phenylquinoline-4-carboxamide] | 13.5 ± 8.1 µM
COc1ccc2nc(-c3ccccc3)cc(C(=O)NCCN(C)C)c2c1 [Compound 15c, N-[2-(dimethylamino)ethyl]-6-methoxy-2-phenylquinoline-4-carboxamide] | 31.8 ± 1.3 µM
CCN(CC)CCNC(=O)c1cc(-c2ccccc2)nc2ccc(OC)cc12 [Compound 15d, N-[2-(diethylamino)ethyl]-6-methoxy-2-phenylquinoline-4-carboxamide] | 27.5 ± 7.3 µM
CN(C)CCNC(=O)c1cc(-c2ccccc2)nc2ccc(F)cc12 [Compound 19a, N-[2-(dimethylamino)ethyl]-6-fluoro-2-phenylquinoline-4-carboxamide] | 38.8 ± 19 µM
CCN(CC)CCNC(=O)c1cc(-c2ccccc2)nc2ccc(F)cc12 [Compound 19b, N-[2-(diethylamino)ethyl]-6-fluoro-2-phenylquinoline-4-carboxamide] | 24.9 ± 1.5 µM
